Test results from patent publication US20210267923A1, “SUCCINIC ACID AND DERIVATIVES FOR THE TREATMENT OF HAEMOTOLOGICAL DISORDERS” (ENZENE BIOSCIENCES LIMITED, priority 2018, published 2021).

Tests used:
TF-1 cells [1] = experiment: In-vitro bioassay in TF1 cell lines (proliferation, alamar Blue); details: treated 48 h without rhGMCSF, normalized to cell control
TF-1 cells [2] = details: normalised to untreated cells (CC), triplicates
Method: For RNA-seq analysis, TF-1 cells were either treated with the positive control GMCSF (GM) or with succinate (E01). Untreated TF-1 cells (CC) were used as a control to determine basal gene expression. RNA-seq was performed in triplicates from all the three groups. The gene expression from E01 or GM group was normalised to the expression of CC.

WI38 cells = details: WI38 fibroblasts, mitogen-deprived medium (0.1% FBS), 48 h in presence of succinate
platelet counts = details: rats, 100 mg/kg twice daily P.O. for 7 days, versus water control
Method: A preliminary study was conducted in rats using pure succinic acid (from commercial source). Six animals were used in each group (control and treated). The treated group received a dose of 100 mg/kg succinic acid twice daily P.O. whereas the control group received water of same volume as in treated twice daily. CBC (Complete Blood counts) was performed from the blood withdrawn from individual rats.

Q: How did the “cellular proliferation in TF-1 cells” value (TF-1 cells [1]) turn out when `O=C([O-])CCC(=O)[O-].[Ca+2]` [Ca salt of succinic acid] was run?
A: showed proliferation activity

Q: Which “cellular proliferation in TF-1 cells” value (TF-1 cells [1]) does the source give for `O=C([O-])CCC(=O)[O-].[Mg+2]` [Mg salt of succinic acid] here?
A: showed proliferation activity

Q: `O=C([O-])CCC(=O)[O-].[Na+].[Na+]` [Sodium Succinate] was tested. Which “cellular proliferation in TF-1 cells” value (TF-1 cells [1]; listed as Na salt of succinic acid) did it give?
A: showed proliferation activity

Q: `O=C(O)CCC(=O)O` [succinate] was tested. Which “gene expression changes (RNA-seq)” value (TF-1 cells [2]) did it give?
A: Several genes related to platelet differentiation pathway in succinate treated cells were identified

Q: And the “cell cycle entry from quiescence” value (WI38 cells)?
A: entered in the cell cycle even in the absence of mitogens

Q: For `O=C(O)CCC(=O)O` [succinic acid, Succinic acid], which “cellular proliferation in TF-1 cells” value (TF-1 cells [1]) is on record?
A: dose dependent proliferation was observed

Q: And the platelet counts (platelet counts)?
A: substantially increase the platelet counts
